The structures appear in SMILES notation. “And” between values parts separate entries of the source, which are not always exact repeats. Equal entries are not always repeated.

The text below walks through data of BindingDB's records for PubMed 1848629 (Georgetown University, 1991).

Chain of Gamma-aminobutyric acid type B receptor subunit 1 (Q9Z0U4 whole entry): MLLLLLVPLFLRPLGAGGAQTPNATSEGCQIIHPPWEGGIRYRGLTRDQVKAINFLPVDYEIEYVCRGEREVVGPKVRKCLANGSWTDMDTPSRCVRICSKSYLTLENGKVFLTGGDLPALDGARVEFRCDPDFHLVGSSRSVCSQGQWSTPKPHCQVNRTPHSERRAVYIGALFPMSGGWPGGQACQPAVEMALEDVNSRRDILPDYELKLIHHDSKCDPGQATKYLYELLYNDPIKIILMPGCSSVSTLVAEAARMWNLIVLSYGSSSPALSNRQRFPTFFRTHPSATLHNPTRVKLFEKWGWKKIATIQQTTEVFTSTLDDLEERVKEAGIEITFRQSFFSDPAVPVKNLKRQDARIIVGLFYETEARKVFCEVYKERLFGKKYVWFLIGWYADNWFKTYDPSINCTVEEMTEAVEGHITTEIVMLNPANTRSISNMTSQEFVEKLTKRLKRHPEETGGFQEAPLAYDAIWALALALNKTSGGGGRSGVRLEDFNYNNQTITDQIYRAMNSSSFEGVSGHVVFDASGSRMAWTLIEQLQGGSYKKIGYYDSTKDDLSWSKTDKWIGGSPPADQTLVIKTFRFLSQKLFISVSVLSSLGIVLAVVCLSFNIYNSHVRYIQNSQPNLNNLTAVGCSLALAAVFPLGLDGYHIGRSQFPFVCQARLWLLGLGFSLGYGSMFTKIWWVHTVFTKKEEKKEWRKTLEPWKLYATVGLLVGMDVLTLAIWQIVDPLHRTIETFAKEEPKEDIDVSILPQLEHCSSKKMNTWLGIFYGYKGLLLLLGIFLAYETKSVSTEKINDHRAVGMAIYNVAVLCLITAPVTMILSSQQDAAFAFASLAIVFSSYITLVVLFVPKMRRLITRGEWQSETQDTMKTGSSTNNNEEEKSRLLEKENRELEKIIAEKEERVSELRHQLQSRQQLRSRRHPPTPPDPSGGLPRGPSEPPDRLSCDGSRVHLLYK
Chain of Gamma-aminobutyric acid (GABA) B receptor 1 (Q6MFX8 whole entry): as the sequence (Q9Z0U4 whole entry) above

The first test has as its target Gamma-aminobutyric acid (GABA) B receptor 1 (Rattus norvegicus, UniProt Q6MFX8).
Take `Cc1nnc2ccc(-c3cccc(C(F)(F)F)c3)nn12`: the Ki was 15 nM and 12 nM and 100 nM.
For the compound `CCOC(=O)c1ncn2c1CN(C)C(=O)c1cc(F)ccc1-2` [ethyl 12-fluoro-8-methyl-9-oxo-2,4,8-triazatricyclo[8.4.0.0^{2,6}]tetradeca-1(14),3,5,10,12-pentaene-5-carboxylate], the Ki is 1 nM and 2 nM and 1.9 nM.

The next test has as its target Gamma-aminobutyric acid type B receptor subunit 1 (UniProt Q9Z0U4).
As to `CN1C(=O)CN=C(c2ccccc2)c2cc(Cl)ccc21`, the Ki was 19 nM and 18 nM and 22 nM and 20 nM and 26 nM.
Regarding `Cc1nnc2n1-c1ccc(Cl)cc1C(c1ccccc1)=NC2`, the inhibition constant Ki is 4.5 nM and 5 nM and 6.7 nM and 5.3 nM and 8 nM.
As to `CN1C(=O)CN=C(c2ccccc2F)c2cc([N+](=O)[O-])ccc21` [Flunitrazepam], the inhibition constant Ki is 8.8 nM and 10 nM and 6.1 nM and 5 nM and 7.5 nM.
Consider `CC[C@@H](C)N(C)C(=O)c1cc2ccccc2c(-c2ccccc2Cl)n1` [PK 11195], for which the Ki is 1000 nM.
Regarding `CN1C(=O)CN=C(c2ccc(Cl)cc2)c2cc(Cl)ccc21` [Ro5-4864], the affinity, expressed as Ki, was 1000 nM.

One may read the Ki as a dissociation constant, usually derived from enzyme kinetics or from competition with a known ligand.
